Source: US10183015B2, “Heterocyclic compounds and methods of use” (Medivation Technologies LLC, priority 2015, dated 2019)
“And” between values parts separate entries of the source, which are not always exact repeats. Equal values may be shown once.

Legend:
Assay type in all cases: in vivo
[1] = DIN mouse model: body weight, food and water intake, mortality
Method: (§1) Male C57Bl/6J mice (8 weeks old) were housed in enriched ventilated cages (31×12.5×12.7 cm) throughout the experimental phase. Animals' cages litters were changed at least once a week. Animal were housed 5 per cage on inverted 12-hour light cycle (at 09:00 am lights off), 22±2° C. and 55±10% relative humidity. The acclimation period was 20 days. During the acclimation period, all mice were fed a standard diet (RM1 (E) 801492, SDS) and tap water ad libitum. After the acclimation period, mice were fed with the DIN diet (60% fat, cholesterol enriched) and fructose-enriched tap water ad libitum until the end of the experiment.
(§2) At 6 weeks of diet, mice were 4-hour fasted (09:00 am to 1:00 pm) and blood (150 μl/EDTA) was collected at 01:00 pm by retro-orbital bleeding under isoflurane anesthesia. Mice were then allocated in 2 homogenous groups (n=12/group) according to their plasma levels of ALT (average levels: 685U/L), AST (average levels: 627U/L) and HOMA-IR index (average value: 4.7), into 2 homogenous groups (see values at day 0 in Tables 15A and 15B ALT/AST and Tables 16A and 16B for HOMA-IR). Mice were then treated once daily by oral gavage with vehicle (Group 1) or Compound #37 at 20 mg/kg (Group 2) for 70 days.
Results. […] Water intake tended to be higher in mice treated with, resulting in a 17% increase in cumulative water intake (p<0.05 vs. vehicle). […]

PERK = test: DIN mouse model: hepatic PERK gene expression; details: liver, 20 mg/kg group
Method: (§3) Gene expression analysis. Hepatic expression levels of genes involved in lipid metabolism (FAS, SREBP1, ACC1, SCD1), cholesterol metabolism (HMG-CoAR, LDLR), SREBP proteolysis (SCAP, INSIG1), ER stress (PERK), oxidative stress (NRF2), inflammation (MCP-1), and fibrosis (collagen 1α1) were quantified by RTqPCR. Expression level was normalized to 18S gene expression and relative expression to vehicle group was calculated with the […] method.
as §1, §2
(§4) Hepatic expression levels of genes involved in lipid (FAS, SREBP1, ACC1, SCD1), cholesterol metabolism (HMG-CoAR, LDLR), in SREBP proteolysis (SCAP, INSIG1), in ER stress (PERK), oxidative stress (NRF2), and inflammation (MCP-1) were not changed. However, expression of collagen 1α1, involved in liver fibrosis, was reduced by 66% in mice treated with Compound #37 (p<0.05 vs. vehicle).

Coll1a1 = test: DIN mouse model: hepatic Coll1a1 (collagen 1α1) gene expression; parameters: mean liver collagen α1(I) mRNA: unit not given here; details: for Coll1a1 Dct / Coll1a1 2^DDct / Coll1a1 DDct / Coll1a1 (Ct): liver, 20 mg/kg group
Method: as §3, §1, §2, §4

ACC1 = test: Short-term Paigen-diet NASH mouse model: hepatic ACC1 gene expression (RT-qPCR); details: liver, 21 days; for DDct: ACC1 Dct relative to vehicle mean; for Dct: ACC1 minus 18S; for 2DDct: ACC1 relative expression to vehicle group, normalized to 18S; for ACC1: raw RT-qPCR value
Method: To investigate whether Compound #37 prevents the development of pathology associated with NASH and steatosis in an acute exploratory disease model, a study was conducted using a diet-induced acute liver steatosis model in mice. As described below, in this study, C57BL/6J mice were initiated on the Paigen diet and simultaneously treated with Compound #37 (5, 20, and 40 mg/kg/day) or vehicle control (20% HPβCD 10 mL/kg/day) by oral gavage for 21 days.
(§5) After acclimation, 8-week old male C57Bl/6J mice (Charles River) weighing about 25 g were randomized in 4 groups according their body weight and treated once daily around noon by oral gavage with vehicle, or Compound #37 at various for 21 days as follows: Group 1: vehicle-20% (2-hydroxypropyl)-β-cyclodextrin (HP-β-CD) (n=10); Group 2: Compound #37, 5 mg/kg (n=10) Group 3: Compound #37, 20 mg/kg (n=10) Group 4: Compound #37, 40 mg/kg (n=10). During the treatment period, body weight and food intake (measured over 24h) were measured 3 times per week and once a week, respectively. During the acclimation, all mice were fed a standard diet (Special Diets Services RM1 (E), product no. 801492) and tap water ad libitum. After the acclimation period, mice were fed until the end of the experiment with a 60% high fat Paigen diet (60 kcal % fat, 1.25% cholesterol, and 0.5% cholate; D11061901, Research Diet) and tap water ad libitum.
as §3

MCP-1 = test: DIN mouse model: hepatic MCP-1 levels; details: 20 mg/kg; for MCP1: hepatic
Method: as §1, §2

IL-6 = test: Short-term Paigen-diet NASH mouse model: liver IL-6 levels
Method: To investigate whether Compound #37 prevents the development of pathology associated with NASH and steatosis in an acute exploratory disease model, a study was conducted using a diet-induced acute liver steatosis model in mice. […]
as §5
The 60% high fat Paigen diet induced accumulation of liver lipids, inflammation, oxidative stress, and then fibrosis.

[2] = individual animals, normalised to 18S, 20 mg/kg
[3] = individual animals, vs vehicle mean, 20 mg/kg
[4] = Compound #37 5 mg/kg, group mean, n=8
[5] = Compound #37 5 mg/kg, individual animals, 5 mg/kg
[6] = Compound #37 20 mg/kg, group mean, n=6
[7] = Compound #37 20 mg/kg, individual animals, 20 mg/kg

In the case of CC(C)Cc1cc(-c2nc(-c3ccc(NS(=O)(=O)C(F)(F)F)cc3Cl)cs2)ccn1 [Compound 37, N-(3-chloro-4-(2-(2-isobutylpyridin-4-yl)thiazol-4-yl)phenyl)-1,1,1-trifluoromethanesulfonamide], the “body weight and body weight gain” value ([1]; 20 mg/kg p.o. daily, 70 days) is reported as “non-significant trend towards lower”, the tolerability ([1]; 20 mg/kg/day, 10 weeks) is reported as “generally well tolerated” and the “PERK Dct” value (PERK; [2]) is reported as 14.23 and 14.41 and 16.11 and 14.89 and 14.95 and 14.18 and 14.85 and 14.3 and 15.75 and 16.07 and 12.9. The “PERK 2^DDct” value (PERK; [3]) was 1.2 and 1.06 and 0.33 and 0.76 and 0.73 and 1.24 and 0.78 and 1.15 and 0.42 and 0.34 and 3.02, the “PERK DDct” value (PERK; [3]) was −0.27 and −0.09 and 1.61 and 0.39 and 0.45 and −0.32 and 0.35 and −0.2 and 1.25 and 1.57 and −1.6 and the “PERK (Ct)” value (PERK; individual animals, 20 mg/kg) was 26.78 and 26.96 and 28.95 and 27.32 and 27.3 and 26.77 and 26.58 and 26.81 and 27.25 and 27.62 and 25.25. For the same compound, the “PERK 2^DDct” value (PERK; mean, n 11) was 1.00, the “PERK (Ct)” value (PERK; mean, n 11) was 27.1 and the “PERK DDct” value (PERK; mean, n 11) was 0.29. For the same compound, the “PERK Dct” value (PERK; mean, n 11) was 14.8, the “expression of collagen 1α1 reduction” value (Coll1a1; 20 mg/kg, 70 days, p<0.05 vs. vehicle) was 66% and the “mean liver collagen α1(I) mRNA” value (Coll1a1; 20 mg/kg/day, 10 weeks, vehicle 1.45%, p<0.05) was 0.49. The “Coll1a1 Dct” value (Coll1a1; [2]) was 15 and 14.23 and 17.82 and 16.38 and 15.37 and 15.65 and 15.13 and 16.1 and 16.14 and 17.48 and 12.82, the “Coll1a1 2^DDct” value (Coll1a1; [3]) was 0.48 and 0.82 and 0.07 and 0.19 and 0.37 and 0.31 and 0.44 and 0.23 and 0.22 and 0.09 and 2.19 and the “Coll1a1 DDct” value (Coll1a1; [3]) was 1.05 and 0.28 and 3.87 and 2.43 and 1.42 and 1.7 and 1.18 and 2.15 and 2.19 and 3.53 and −1.13. The “Coll1a1 (Ct)” value (Coll1a1; individual animals, 20 mg/kg) was 27.55 and 26.78 and 30.66 and 28.81 and 27.72 and 28.24 and 26.86 and 28.61 and 27.64 and 29.03 and 25.17, the “Coll1a1 2^DDct” value (Coll1a1; mean, n 11) was 0.49 and the “Coll1a1 (Ct)” value (Coll1a1; mean, n 11) was 27.9. The “Coll1a1 DDct” value (Coll1a1; mean, n 11) was 1.70, the “Coll1a1 Dct” value (Coll1a1; mean, n 11) was 15.6 and the DDct (ACC1; [4]) was 0.81. The DDct (ACC1; [5]) was 1.08 and 0.78 and 1.88 and 3.12 and −0.53 and −0.87 and 1.01 and 0.01, the DDct (ACC1; [6]) was 2.71 and the DDct (ACC1; [7]) was 0.6 and 7.15 and 3.66 and 0.46 and 3.91 and 0.45. The Dct (ACC1; [4]) was 18.7, the Dct (ACC1; [5]) was 19 and 18.7 and 19.8 and 21.04 and 17.39 and 17.05 and 18.93 and 17.93 and the Dct (ACC1; [6]) was 20.6. For the same compound, the Dct (ACC1; [7]) was 18.52 and 25.07 and 21.58 and 18.38 and 21.83 and 18.37, the 2DDct (ACC1; [4]) was 0.78 and the 2DDct (ACC1; [5]) was 0.47 and 0.58 and 0.27 and 0.12 and 1.44 and 1.83 and 0.5 and 0.99. The 2DDct (ACC1; [6]) was 0.38, the 2DDct (ACC1; [7]) was 0.66 and 0.01 and 0.08 and 0.73 (2×) and 0.07 and the ACC1 (ACC1; [4]) was 30.9. The ACC1 (ACC1; [5]) was 32.46 and 31.81 and 31.41 and 34.39 and 28.99 and 28.84 and 30.07 and 29.05, the ACC1 (ACC1; [6]) was 32.8 and the ACC1 (ACC1; [7]) was 31.43 and 37.36 and 33.78 and 31.41 and 33.32 and 29.63. The “Hepatic MCP-1 levels reduction” value (MCP-1; 70 days, p<0.001 vs. vehicle) was 70%, the MCP1 (MCP-1; group mean, n 11) was 1.7 pg/mg liver and the MCP1 (MCP-1; individual animals) was 1.34 pg/mg liver and 1.53 pg/mg liver and 0.60 pg/mg liver and 2.54 pg/mg liver and 1.76 pg/mg liver and 1.72 pg/mg liver and 1.42 pg/mg liver and 1.21 pg/mg liver and 1.78 pg/mg liver and 1.90 pg/mg liver and 2.59 pg/mg liver. For the same compound, the “IL-6 (pg/mg tissue)” value (IL-6; 5 mg/kg, 21 days, group mean) was 1012 pg/mg tissue, the “IL-6 (pg/mg tissue)” value (IL-6; 5 mg/kg, 21 days, individual animals) was 1444 pg/mg tissue and 845 pg/mg tissue and 1107 pg/mg tissue and 650 pg/mg tissue and 1305 pg/mg tissue and 957 pg/mg tissue and 770 pg/mg tissue and 1296 pg/mg tissue and 883 pg/mg tissue and 863 pg/mg tissue and the “IL-6 (pg/mg tissue)” value (IL-6; 20 mg/kg, 21 days, group mean) was 817 pg/mg tissue. For the same compound, the “IL-6 (pg/mg tissue)” value (IL-6; 20 mg/kg, 21 days, individual animals) was 904 pg/mg tissue and 737 pg/mg tissue and 760 pg/mg tissue and 705 pg/mg tissue and 970 pg/mg tissue and 826 pg/mg tissue, the “IL-6 (pg/mg tissue)” value (IL-6; 40 mg/kg, 9 days, group mean) was 669 pg/mg tissue and the “IL-6 (pg/mg tissue)” value (IL-6; 40 mg/kg, 9 days, individual animals) was 1005 pg/mg tissue and 569 pg/mg tissue and 535 pg/mg tissue and 566 pg/mg tissue.
